# Test results: US20250243196A1, “CITRON KINASE INHIBITORS” (The Cleveland Clinic Foundation, priority 2021, published 2025)
# Columns and labels:
# Format in all cases: biochemical
# [1] = biological target: IKKβ (Homo sapiens (Human), UniProt O14920); assay: KinaseProfiler radiometric assay (14-485KP); details: mean of at least two independent experiments
# Text: In another aspect, disclosed is a method of inhibiting citron kinase in a sample, comprising contacting the sample with a compound described herein (e.g., a compound of formula (I) or a pharmaceutically acceptable salt thereof), or a pharmaceutical composition described herein (e.g., a pharmaceutical composition comprising a compound of formula (I) or a pharmaceutically acceptable salt thereof), in an amount effective to inhibit citron kinase. In some embodiments, the step of contacting the sample with the compound comprises administering the compound to a subject (e.g., a subject) suffering from cancer. Methods of determining kinase inhibition are well known in the art. For example, kinase activity of an enzyme and the inhibitory capacity of a test compound can be determined by measuring enzyme specific phosphorylation of a substrate. Commercial assays and kits can be employed. For example, kinase inhibition can be determined using a radiometric binding assay, such as using KinaseProfiler™ technology (Eurofins Discovery). This assay method directly detects product formation without the use of modified substrates or coupling enzymes. Test compounds are incubated with kinase, substrate, required cofactors and radioisotope labeled ATP. Following incubation, unreacted radioactive ATP is removed by washing and incorporation of the radiolabeled phosphate into the kinase substrate is assayed to detect phosphoryltransferase activity, which is directly proportional to the amount of phosphorylated substrate. Inhibition of the kinase by a kinase inhibitor prevents phosphorylation of the substrate and thereby limits the incorporation of radiolabeled phosphate. Such an assay is compatible with a microwell assay format, allowing simultaneous determination of IC50 of multiple compounds.
# The effect of various compounds on the inhibition of other kinases has also been determined. Table 2 reports measured IC50 values; value units are nanomolar inhibition.
# [2] = biological target: Aurora-B(h) (Homo sapiens (Human), UniProt Q96GD4); assay: KinaseProfiler panel; design: dose or concentration left out as unconfirmed; details: activity remaining
# Chain of Aurora-B(h) (Q96GD4 whole entry): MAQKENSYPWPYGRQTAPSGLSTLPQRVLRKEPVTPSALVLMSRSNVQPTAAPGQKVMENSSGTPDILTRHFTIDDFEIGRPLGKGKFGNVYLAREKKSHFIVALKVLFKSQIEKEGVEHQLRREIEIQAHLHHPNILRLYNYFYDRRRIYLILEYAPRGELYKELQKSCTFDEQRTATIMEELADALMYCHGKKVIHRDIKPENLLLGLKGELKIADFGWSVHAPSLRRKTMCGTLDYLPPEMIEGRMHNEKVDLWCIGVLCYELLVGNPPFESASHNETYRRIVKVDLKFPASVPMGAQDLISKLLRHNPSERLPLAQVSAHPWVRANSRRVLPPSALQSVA
# [3] = biological target: c-RAF(h) (Homo sapiens (Human), UniProt P04049); assay: KinaseProfiler panel; design: dose or concentration left out as unconfirmed; details: activity remaining
# [4] = biological target: CDK17/cyclinY(h) (Homo sapiens (Human), UniProt Q00537); assay: KinaseProfiler panel; design: dose or concentration left out as unconfirmed; details: activity remaining
# [5] = biological target: DMPK(h) (Homo sapiens (Human), UniProt Q09013); assay: KinaseProfiler panel; design: dose or concentration left out as unconfirmed; details: activity remaining
# [6] = biological target: DYRK3(h) (Homo sapiens (Human), UniProt O43781); assay: KinaseProfiler panel; design: dose or concentration left out as unconfirmed; details: activity remaining
# Chain of DYRK3(h) (O43781 whole entry): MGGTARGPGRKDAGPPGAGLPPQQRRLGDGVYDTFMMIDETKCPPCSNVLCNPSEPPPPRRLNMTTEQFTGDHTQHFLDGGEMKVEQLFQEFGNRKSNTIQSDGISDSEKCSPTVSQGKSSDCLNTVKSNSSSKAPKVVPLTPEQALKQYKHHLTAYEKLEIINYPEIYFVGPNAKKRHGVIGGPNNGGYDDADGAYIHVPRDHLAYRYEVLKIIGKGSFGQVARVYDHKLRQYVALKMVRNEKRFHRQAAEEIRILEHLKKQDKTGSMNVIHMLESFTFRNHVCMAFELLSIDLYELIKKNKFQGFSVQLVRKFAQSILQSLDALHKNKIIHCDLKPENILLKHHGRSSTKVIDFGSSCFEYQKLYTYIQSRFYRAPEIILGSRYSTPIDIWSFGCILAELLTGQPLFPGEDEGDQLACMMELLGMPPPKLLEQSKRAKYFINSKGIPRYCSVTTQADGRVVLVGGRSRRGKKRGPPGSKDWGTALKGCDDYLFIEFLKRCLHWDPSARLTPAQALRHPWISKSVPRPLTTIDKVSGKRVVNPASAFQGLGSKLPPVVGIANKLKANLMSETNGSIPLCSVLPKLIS
# [7] = biological target: EphA2(h) (Homo sapiens (Human), UniProt P29317); assay: KinaseProfiler panel; design: dose or concentration left out as unconfirmed; details: activity remaining
# Chain of EphA2(h) (P29317 24-976): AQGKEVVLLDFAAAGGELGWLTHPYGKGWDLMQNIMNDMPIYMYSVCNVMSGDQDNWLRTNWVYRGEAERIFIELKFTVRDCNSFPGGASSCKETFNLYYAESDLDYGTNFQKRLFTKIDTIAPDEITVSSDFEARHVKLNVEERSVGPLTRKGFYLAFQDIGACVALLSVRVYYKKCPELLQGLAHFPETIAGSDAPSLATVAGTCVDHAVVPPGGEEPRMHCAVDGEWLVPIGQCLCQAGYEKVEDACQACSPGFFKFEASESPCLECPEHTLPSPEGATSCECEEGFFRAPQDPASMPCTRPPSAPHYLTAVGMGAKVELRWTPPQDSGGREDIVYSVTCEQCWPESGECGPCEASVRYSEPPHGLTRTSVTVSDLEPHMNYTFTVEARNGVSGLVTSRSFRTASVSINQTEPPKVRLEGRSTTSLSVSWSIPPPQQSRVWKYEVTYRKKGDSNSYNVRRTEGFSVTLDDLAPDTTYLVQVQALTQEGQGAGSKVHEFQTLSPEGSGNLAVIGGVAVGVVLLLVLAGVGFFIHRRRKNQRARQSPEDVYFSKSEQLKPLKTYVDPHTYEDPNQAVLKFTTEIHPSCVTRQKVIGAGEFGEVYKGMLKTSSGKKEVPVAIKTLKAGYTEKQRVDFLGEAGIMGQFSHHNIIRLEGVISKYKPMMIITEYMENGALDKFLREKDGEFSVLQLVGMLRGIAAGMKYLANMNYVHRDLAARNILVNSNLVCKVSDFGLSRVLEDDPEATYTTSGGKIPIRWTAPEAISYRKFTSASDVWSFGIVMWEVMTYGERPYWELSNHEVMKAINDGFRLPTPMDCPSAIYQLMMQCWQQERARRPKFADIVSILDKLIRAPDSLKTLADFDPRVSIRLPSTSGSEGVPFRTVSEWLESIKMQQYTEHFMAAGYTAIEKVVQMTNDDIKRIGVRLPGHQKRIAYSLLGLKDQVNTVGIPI
# [8] = biological target: EphB4(h) (Homo sapiens (Human), UniProt P54760); assay: KinaseProfiler panel; design: dose or concentration left out as unconfirmed; details: activity remaining
# [9] = biological target: Hck(h) (Homo sapiens (Human), UniProt P08631); assay: KinaseProfiler panel; design: dose or concentration left out as unconfirmed; details: activity remaining
# Chain of Hck(h) (P08631 whole entry): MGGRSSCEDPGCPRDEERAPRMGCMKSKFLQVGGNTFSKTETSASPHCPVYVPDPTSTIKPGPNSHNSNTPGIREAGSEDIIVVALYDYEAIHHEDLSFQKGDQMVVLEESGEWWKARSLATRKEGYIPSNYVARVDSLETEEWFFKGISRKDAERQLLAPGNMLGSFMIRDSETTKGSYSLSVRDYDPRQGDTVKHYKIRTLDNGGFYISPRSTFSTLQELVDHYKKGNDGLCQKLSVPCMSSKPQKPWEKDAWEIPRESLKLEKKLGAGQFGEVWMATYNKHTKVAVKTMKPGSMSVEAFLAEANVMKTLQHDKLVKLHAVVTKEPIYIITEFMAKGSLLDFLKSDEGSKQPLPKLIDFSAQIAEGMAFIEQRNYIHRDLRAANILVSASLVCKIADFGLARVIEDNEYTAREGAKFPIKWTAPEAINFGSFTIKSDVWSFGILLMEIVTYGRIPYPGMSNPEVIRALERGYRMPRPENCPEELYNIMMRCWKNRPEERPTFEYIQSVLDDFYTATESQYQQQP
# [10] = biological target: JAK1(h) (Homo sapiens (Human), UniProt P23458); assay: KinaseProfiler panel; design: dose or concentration left out as unconfirmed; details: activity remaining
# [11] = biological target: MAPK2(h) (Homo sapiens (Human), UniProt P28482); assay: KinaseProfiler panel; design: dose or concentration left out as unconfirmed; details: activity remaining
# [12] = biological target: MARK4(h) (Homo sapiens (Human), UniProt Q96L34); assay: KinaseProfiler panel; design: dose or concentration left out as unconfirmed; details: activity remaining
# [13] = biological target: MLCK(h) (Homo sapiens (Human), UniProt Q15746); assay: KinaseProfiler panel; design: dose or concentration left out as unconfirmed; details: activity remaining
# [14] = biological target: MSK2(h) (Homo sapiens (Human), UniProt O75676); assay: KinaseProfiler panel; design: dose or concentration left out as unconfirmed; details: activity remaining
# Chain of MSK2(h) (O75676 whole entry): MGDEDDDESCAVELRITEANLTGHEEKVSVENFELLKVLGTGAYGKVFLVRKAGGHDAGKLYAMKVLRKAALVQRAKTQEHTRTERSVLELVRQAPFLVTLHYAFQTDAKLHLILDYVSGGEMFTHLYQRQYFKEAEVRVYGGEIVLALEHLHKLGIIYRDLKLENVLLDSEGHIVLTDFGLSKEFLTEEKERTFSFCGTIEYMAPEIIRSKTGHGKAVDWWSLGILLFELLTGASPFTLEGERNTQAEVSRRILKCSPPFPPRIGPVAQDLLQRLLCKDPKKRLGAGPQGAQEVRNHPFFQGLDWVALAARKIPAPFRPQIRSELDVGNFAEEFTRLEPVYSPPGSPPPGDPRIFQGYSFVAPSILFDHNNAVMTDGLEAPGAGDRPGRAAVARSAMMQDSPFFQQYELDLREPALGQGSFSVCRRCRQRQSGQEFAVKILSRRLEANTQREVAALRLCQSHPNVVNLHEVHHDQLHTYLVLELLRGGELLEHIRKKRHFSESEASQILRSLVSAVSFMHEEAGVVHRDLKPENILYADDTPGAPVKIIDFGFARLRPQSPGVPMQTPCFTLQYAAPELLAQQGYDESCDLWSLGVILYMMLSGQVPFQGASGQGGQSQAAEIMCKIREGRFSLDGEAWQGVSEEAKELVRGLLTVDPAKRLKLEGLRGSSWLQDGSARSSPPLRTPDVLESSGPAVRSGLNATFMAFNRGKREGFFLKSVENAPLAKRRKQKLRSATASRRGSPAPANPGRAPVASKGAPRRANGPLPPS
# [15] = biological target: MST1(h) (Homo sapiens (Human), UniProt Q13043); assay: KinaseProfiler panel; design: dose or concentration left out as unconfirmed; details: activity remaining
# Chain of MST1(h) (Q13043 whole entry): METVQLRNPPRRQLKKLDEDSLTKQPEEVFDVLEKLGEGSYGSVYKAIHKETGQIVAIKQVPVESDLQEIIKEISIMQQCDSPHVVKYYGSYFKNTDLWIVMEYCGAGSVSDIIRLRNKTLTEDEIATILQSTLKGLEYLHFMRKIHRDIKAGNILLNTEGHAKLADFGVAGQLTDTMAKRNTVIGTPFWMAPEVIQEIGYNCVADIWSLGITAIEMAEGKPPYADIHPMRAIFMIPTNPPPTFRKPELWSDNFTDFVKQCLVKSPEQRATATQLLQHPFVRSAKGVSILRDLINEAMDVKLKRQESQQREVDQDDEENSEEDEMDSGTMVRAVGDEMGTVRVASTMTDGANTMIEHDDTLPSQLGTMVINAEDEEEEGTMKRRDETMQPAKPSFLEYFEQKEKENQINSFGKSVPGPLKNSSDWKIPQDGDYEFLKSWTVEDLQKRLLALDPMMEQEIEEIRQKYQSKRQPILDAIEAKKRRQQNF
# [16] = biological target: p70S6K(h) (Homo sapiens (Human), UniProt P23443); assay: KinaseProfiler panel; design: dose or concentration left out as unconfirmed; details: activity remaining
# [17] = biological target: PIP5K1a(h) (Homo sapiens (Human), UniProt Q99755); assay: KinaseProfiler panel; design: dose or concentration left out as unconfirmed; details: activity remaining
# Chain of PIP5K1a(h) (Q99755 whole entry): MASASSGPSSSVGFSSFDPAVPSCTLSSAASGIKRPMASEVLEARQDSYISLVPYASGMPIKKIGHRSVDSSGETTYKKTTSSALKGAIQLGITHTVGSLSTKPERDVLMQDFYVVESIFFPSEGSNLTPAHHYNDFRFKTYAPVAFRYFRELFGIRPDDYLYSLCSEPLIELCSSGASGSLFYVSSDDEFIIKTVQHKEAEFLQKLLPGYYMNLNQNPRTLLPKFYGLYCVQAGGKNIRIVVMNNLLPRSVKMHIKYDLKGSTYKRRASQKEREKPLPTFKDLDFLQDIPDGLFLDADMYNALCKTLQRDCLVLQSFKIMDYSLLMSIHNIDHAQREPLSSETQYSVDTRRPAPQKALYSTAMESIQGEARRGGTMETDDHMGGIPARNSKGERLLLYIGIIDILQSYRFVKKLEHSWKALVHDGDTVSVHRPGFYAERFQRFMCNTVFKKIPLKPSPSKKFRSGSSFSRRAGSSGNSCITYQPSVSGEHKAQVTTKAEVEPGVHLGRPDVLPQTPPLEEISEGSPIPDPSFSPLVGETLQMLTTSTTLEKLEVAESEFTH
# [18] = biological target: PKAcβ(h) (Homo sapiens (Human), UniProt P22694); assay: KinaseProfiler panel; design: dose or concentration left out as unconfirmed; details: activity remaining
# [19] = biological target: PKCθ(h) (Homo sapiens (Human), UniProt Q04759); assay: KinaseProfiler panel; design: dose or concentration left out as unconfirmed; details: activity remaining
# [20] = biological target: PKD2(h) (Homo sapiens (Human), UniProt Q9BZL6); assay: KinaseProfiler panel; design: dose or concentration left out as unconfirmed; details: activity remaining
# [21] = biological target: SGK2(h) (Homo sapiens (Human), UniProt Q9HBY8); assay: KinaseProfiler panel; design: dose or concentration left out as unconfirmed; details: activity remaining
# [22] = biological target: Snk(h) (Homo sapiens (Human), UniProt Q9NYY3); assay: KinaseProfiler panel; design: dose or concentration left out as unconfirmed; details: activity remaining
# [23] = biological target: SNRK(h) (Homo sapiens (Human), UniProt Q9NRH2); assay: KinaseProfiler panel; design: dose or concentration left out as unconfirmed; details: activity remaining
# [24] = biological target: STK32A(h) (Homo sapiens (Human), UniProt Q8WU08); assay: KinaseProfiler panel; design: dose or concentration left out as unconfirmed; details: activity remaining
# [25] = biological target: TrkB(h) (Homo sapiens (Human), UniProt Q16620); assay: KinaseProfiler panel; design: dose or concentration left out as unconfirmed; details: activity remaining
# Chain of TrkB(h) (Q16620 32-822): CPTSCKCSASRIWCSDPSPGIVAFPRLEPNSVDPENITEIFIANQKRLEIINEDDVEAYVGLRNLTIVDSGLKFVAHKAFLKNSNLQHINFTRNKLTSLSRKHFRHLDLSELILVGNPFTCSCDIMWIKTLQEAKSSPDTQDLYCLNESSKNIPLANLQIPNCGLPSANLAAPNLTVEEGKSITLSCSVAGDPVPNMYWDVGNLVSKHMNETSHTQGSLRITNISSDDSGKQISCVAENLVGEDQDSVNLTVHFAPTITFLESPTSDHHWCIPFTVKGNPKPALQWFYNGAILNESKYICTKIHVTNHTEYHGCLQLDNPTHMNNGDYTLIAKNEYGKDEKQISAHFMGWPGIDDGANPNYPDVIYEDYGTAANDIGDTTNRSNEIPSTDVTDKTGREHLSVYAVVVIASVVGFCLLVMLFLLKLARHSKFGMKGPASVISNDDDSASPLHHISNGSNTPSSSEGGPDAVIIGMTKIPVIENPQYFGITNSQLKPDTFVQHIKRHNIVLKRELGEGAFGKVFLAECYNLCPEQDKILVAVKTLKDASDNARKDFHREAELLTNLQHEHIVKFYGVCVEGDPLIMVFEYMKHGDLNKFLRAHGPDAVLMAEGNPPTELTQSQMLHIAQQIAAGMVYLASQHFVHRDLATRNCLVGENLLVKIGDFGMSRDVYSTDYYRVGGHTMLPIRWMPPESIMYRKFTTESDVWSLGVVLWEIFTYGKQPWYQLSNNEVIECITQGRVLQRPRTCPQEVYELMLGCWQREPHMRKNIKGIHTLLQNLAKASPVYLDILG
# [26] = biological target: ULK3(h) (Homo sapiens (Human), UniProt Q6PHR2); assay: KinaseProfiler panel; design: dose or concentration left out as unconfirmed; details: activity remaining
smiles,measurement,setting,value
"Cc1cc2c(-c3ccc(NC(=O)[C@H](N)CC(C)(C)C)cc3C)ccnc2[nH]1 [Compound F-90, (2R)-2-Amino-4,4-dimethyl-N-[3-methyl-4-(2-methyl-1H-pyrrolo[2,3-b]pyridin-4-yl)phenyl]pentanamide]",IC50,[1],> 3 µM
same,% Activity,[2],109%
same,% Activity,[3],106%
same,% Activity,[4],108%
same,% Activity,[5],93%
same,% Activity,[6],99%
same,% Activity,[7],95%
same,% Activity,[8],107%
same,% Activity,[9],99%
same,% Activity,[10],85%
same,% Activity,[11],109%
same,% Activity,[12],92%
same,% Activity,[13],98%
same,% Activity,[14],88%
same,% Activity,[15],76%
same,% Activity,[16],93%
same,% Activity,[17],103%
same,% Activity,[18],12%
same,% Activity,[19],103%
same,% Activity,[20],95%
same,% Activity,[21],82%
same,% Activity,[22],94%
same,% Activity,[23],111%
same,% Activity,[24],90%
same,% Activity,[25],84%
same,% Activity,[26],95%
